Test results published in ChEMBL document CHEMBL1201862, “PubChem BioAssay data set” (2004).
Activity calls are given as the source filed them.

How the values were obtained:
Assay type in all cases: functional
[1] = target: T1, Sentrin-specific protease 6 (Homo sapiens, UniProt Q9GZR1);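 further: Luminescence-based dose-response confirmatory assay of SENP6 inhibition, following up an ultra-high-throughput screen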
T1 sequence (Q9GZR1 whole entry): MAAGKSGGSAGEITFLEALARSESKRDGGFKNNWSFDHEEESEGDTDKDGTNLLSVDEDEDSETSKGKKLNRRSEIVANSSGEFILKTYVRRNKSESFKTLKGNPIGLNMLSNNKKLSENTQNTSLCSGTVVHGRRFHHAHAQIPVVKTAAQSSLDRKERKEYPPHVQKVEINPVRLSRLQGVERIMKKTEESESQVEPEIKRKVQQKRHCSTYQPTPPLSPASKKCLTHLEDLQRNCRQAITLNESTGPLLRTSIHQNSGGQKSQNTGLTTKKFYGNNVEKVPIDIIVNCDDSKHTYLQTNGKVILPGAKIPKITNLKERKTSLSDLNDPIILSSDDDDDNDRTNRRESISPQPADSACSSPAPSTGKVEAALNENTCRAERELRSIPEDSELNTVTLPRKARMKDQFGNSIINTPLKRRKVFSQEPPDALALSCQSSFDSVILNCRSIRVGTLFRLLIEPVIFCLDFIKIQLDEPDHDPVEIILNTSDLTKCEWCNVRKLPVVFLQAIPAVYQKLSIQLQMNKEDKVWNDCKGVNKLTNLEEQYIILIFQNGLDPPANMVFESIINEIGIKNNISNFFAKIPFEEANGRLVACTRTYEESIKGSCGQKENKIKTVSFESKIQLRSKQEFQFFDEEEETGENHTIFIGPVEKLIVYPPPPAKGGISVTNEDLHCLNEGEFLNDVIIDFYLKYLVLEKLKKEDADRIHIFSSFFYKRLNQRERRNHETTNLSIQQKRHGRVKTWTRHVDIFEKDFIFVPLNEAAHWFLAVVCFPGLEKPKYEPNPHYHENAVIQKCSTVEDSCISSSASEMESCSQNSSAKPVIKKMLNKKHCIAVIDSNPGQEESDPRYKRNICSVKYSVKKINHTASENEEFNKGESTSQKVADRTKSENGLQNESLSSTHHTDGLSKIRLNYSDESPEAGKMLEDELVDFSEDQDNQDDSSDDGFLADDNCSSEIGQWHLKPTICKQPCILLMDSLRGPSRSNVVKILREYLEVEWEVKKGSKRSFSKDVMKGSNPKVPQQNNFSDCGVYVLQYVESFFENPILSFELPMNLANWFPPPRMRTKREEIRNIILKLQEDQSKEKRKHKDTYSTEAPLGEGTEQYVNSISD

Protein RecA = target: T2, Protein RecA (Mycobacterium tuberculosis, UniProt P9WHJ3); assay: Fluorescence Cell-Free Homogeneous Dose Retest to Identify Inhibitors of RecA-Intein Splicing Activity. [Related pubchem assays (depositor defined):AID2097, AID2223, AID489010, AID492950]
T2 sequence (P9WHJ3 whole entry): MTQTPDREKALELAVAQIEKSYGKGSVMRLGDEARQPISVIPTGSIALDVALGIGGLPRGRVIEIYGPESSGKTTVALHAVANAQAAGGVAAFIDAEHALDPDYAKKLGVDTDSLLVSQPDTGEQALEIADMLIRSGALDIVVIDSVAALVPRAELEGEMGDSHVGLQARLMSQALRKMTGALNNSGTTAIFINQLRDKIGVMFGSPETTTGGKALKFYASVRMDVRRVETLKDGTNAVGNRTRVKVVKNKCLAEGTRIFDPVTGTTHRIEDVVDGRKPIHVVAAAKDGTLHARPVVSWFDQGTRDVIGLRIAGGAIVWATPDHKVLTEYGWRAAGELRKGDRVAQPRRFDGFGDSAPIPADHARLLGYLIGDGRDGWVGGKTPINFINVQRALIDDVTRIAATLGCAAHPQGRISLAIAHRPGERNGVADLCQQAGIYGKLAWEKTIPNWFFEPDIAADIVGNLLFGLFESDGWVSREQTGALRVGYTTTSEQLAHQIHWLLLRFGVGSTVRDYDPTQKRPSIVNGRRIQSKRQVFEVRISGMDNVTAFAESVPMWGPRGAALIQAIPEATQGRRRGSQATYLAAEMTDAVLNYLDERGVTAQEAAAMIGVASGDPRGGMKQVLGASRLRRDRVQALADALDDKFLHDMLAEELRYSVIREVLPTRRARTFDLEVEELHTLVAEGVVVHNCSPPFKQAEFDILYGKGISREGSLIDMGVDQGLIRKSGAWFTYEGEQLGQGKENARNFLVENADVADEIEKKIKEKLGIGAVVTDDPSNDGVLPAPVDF

[2] = target: Cyclin-dependent kinase 5 (Homo sapiens, UniProt Q00535);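 further: CDK5 measured as one member of a kinase profiling panel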
Cyclin-dependent kinase 5, sequence (Q00535 whole entry): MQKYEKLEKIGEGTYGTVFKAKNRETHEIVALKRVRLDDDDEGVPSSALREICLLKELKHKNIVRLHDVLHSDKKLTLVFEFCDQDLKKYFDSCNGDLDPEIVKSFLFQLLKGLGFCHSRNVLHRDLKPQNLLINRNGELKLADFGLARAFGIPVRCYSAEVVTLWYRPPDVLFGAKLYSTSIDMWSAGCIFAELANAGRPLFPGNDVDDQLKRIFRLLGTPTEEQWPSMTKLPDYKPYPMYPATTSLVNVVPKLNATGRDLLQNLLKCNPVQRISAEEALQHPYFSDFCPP

[3] = target: T3, Tyrosine-protein kinase receptor TYRO3 (Homo sapiens, UniProt Q06418);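 further: TYRO3 value obtained as one member of a kinome-wide profiling panel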
T3 sequence (Q06418 whole entry): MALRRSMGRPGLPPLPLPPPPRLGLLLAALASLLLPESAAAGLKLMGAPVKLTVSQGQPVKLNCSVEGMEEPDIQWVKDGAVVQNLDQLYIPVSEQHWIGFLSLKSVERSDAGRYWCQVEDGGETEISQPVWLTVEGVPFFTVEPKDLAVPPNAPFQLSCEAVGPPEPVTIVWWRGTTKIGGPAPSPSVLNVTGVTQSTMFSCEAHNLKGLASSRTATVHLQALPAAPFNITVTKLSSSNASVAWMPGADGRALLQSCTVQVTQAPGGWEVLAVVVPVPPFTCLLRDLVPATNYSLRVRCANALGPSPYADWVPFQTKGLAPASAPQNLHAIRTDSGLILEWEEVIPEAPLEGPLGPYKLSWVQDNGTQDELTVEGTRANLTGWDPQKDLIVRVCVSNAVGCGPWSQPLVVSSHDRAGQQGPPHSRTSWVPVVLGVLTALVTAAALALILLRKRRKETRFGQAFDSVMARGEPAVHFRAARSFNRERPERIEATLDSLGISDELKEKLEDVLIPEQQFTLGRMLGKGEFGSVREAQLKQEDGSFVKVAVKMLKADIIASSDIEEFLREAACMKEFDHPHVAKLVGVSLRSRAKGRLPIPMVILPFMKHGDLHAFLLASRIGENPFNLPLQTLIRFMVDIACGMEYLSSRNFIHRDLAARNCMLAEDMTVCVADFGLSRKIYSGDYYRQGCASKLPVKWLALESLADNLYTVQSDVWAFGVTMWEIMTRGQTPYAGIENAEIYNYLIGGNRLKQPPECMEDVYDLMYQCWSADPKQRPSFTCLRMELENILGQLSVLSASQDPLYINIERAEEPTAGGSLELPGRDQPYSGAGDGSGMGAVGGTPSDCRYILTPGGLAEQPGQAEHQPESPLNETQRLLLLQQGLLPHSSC

With CCCNC(=O)c1c(N)n(CC2CCCO2)c2nc3ccccc3nc12 (configuration not stated) the IC50 [1] was 2010 nM (active).
With O=C1/C(=C\c2cccc(O)c2O)SC(=S)N1Cc1ccccc1 the EC50 (Protein RecA) was 1950 nM (active).
With CC(C)(C)c1cc[n+](C2=C([N-]S(=O)(=O)c3cccs3)C(=O)c3ccccc3C2=O)cc1 the EC50 (Protein RecA) was 950 nM (active) and the IC50 [1] was 5530 nM (active).
COc1c(-c2nc3ccccc3[nH]2)c(O)cc2oc(C)cc(=O)c12 was tested, and the Ki [2] was 794 nM (active) and the Ki [3] was 316 nM (active).
In the case of COC(=O)c1c(N)nc2ccccn12, the Ki [2] is reported as 39800 nM (active) and the Ki [3] is reported as 25100 nM (active).
For CCc1ccc(S(=O)(=O)/N=C2\C=C(Nc3ccc(O)cc3)C(=O)c3ccccc32)cc1, the EC50 (Protein RecA) was 306 nM (active).
With Cc1cc([N+](=O)[O-])cc(/C=N\NC(=O)C2COc3ccccc3O2)c1O (configuration not stated) the IC50 [1] was 28400 nM (active).
For Cc1ccc(F)c(NC(=O)Nc2ccc(-c3cccc4[nH]nc(N)c34)cc2)c1 [LINIFANIB], the Ki [2] was > 3160 nM (inactive) and the Ki [3] was > 3160 nM (inactive).
